Consider 47 compounds from PubChem BioAssay AID179 (DTP/NCI, 2004).

Active and inactive are the calls of the source.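 How the source made its calls: active means compounds giving half or more protection of infected cells from virus-caused growth loss, again on retest; inactive means the rest.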

The test system of this assay is CEM cells HIV-1 protection, formazan growth assay. The experiment in a line: NCI AIDS Antiviral Assay. The note with it: for IC50: measured here: growth of uninfected CEM cells. The method in brief: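 Protection of CEM cells against HIV-1 was scored from cell growth (soluble formazan) across five concentrations, with parallel uninfected cells. Lack of protection may reflect toxicity.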

Take `O=C(OC1C#CCSCC#C/C=C\1)c1cnc2ccccc2n1` (stereo unspecified): the EC50 was > 200 µM and the half-maximal inhibitory concentration (IC50) turned out to be 33.1 µM.
Consider `CCSc1[nH]c(Nc2nc(-c3ccccc3)n(-c3ccccc3)n2)c(C(N)=O)c1C(N)=O`, for which the outcome was inactive.
As for `CN(C)C(N)=NC#N`, the EC50 is > 794 µM and the IC50 was > 794 µM.
On to `c1ccc(N2C3Sc4ncccc4C2Sc2ncccc23)cc1`, for which the EC50 was > 66.1 µM and the 50% inhibitory concentration (IC50) was > 66.1 µM.
Regarding `COc1cc(OC)nc(NC(=O)NS(=O)(=O)c2cccc3ncn(C)c(=O)c23)n1`, the outcome was inactive.
Turning to `COC(=O)CCC1=NOC(CC2CC(CCC(=O)OC)=NO2)C1` (stereo unspecified), the result was inactive.
Regarding `S=C(S)N1CCN(c2ccc(Cl)c(Cl)c2)CC1`, the EC50 was > 200 µM and the IC50 is 26.9 µM.
The matching figures for `C[C@@H]1S[C@H](c2c(F)cccc2F)n2c1nc1ccccc12`: 29.5 µM and 43.7 µM.
On the same counts, the results for `Cn1cnc2c1S(=O)(=O)NC(=S)N2` are > 1150 µM and > 1150 µM.
Take `COc1ccc2c(c1)-c1c(c3cc(OC)ccc3n1CCN1CCOCC1)CC2`: the result was inactive.
Consider `COC(=O)CCN1CCN(CCO)CC1C` (stereo unspecified), for which the EC50 was > 200 µM and the IC50 was > 200 µM.
Take `Cc1ccc(N=Nc2c(N)nn3cc4c(nc23)CCCCC4)cc1`: the EC50 is > 200 µM and the IC50 was > 200 µM.
In the case of `CCOC(=O)NN(C(=O)OCC)C(=C(c1ccccc1)N1CCOCC1)N(NC(=O)OCC)C(=O)OCC`, the EC50 was > 200 µM and the concentration for half-maximal inhibition (IC50) is > 200 µM.
For the compound `CC(=O)NC1C(OCc2ccccc2)OC(CO)C(O)C1OCC(=O)NC(C)C(=O)NC(CCC(=O)NCCCCCNc1c2ccccc2nc2cccc([N+](=O)[O-])c12)C(N)=O` (stereo unspecified), the EC50 is > 200 µM and the half-maximal inhibitory concentration (IC50) came out at 0.0776 µM.
In the case of `CC(=O)COP(=O)(OCC(C)=O)OCC1OC(n2cc(C)c(=O)[nH]c2=O)CC1N=[N+]=[N-]` (stereo unspecified), the EC50 is 0.000631 µM and the IC50 was 2 µM.
The matching figures for `O=c1oc2ccccc2c(O)c1C(c1ccc2c(c1)OCO2)N1CCOCC1` (stereo unspecified): > 200 µM and > 100 µM.
On to `O=S(=O)(O)c1ccc(NNc2ccc(S(=O)(=O)O)cc2)cc1`, for which the outcome was inactive.
`c1cc(-c2ccc(-c3ccc(-c4ccc(-c5cccc6nsnc56)[nH]4)c4nsnc34)[nH]2)c2nsnc2c1`: the EC50 is > 100 µM and the 50% inhibitory concentration (IC50) is > 100 µM.
Consider `O=C(N/N=C/c1ccc(Br)cc1)N/N=C/c1ccc(Br)cc1`, for which the EC50 is > 200 µM and the IC50 was 31.6 µM.
The matching figures for `COc1ccc2c(c1)CCc1c-2n(CCN(C)C)c2ccc(OC)cc12`: > 200 µM and 6.17 µM.
Regarding `C[C@]12CCC(=O)C[C@H]1CCC(O)[C@@H]2Br` (stereo partly specified), the result was inactive.
Take `COC(=O)C(=O)C(C(=O)C(=O)Nc1cccc(C(C)=O)c1)c1nc2ccccc2[nH]c1=O` (stereo unspecified): the EC50 is > 575 µM and the IC50 amounted to 302 µM.
For the compound `COc1ccc(CC(CO)NC(=O)OCc2ccccc2)cc1Oc1ccc(CC(CO)NC(=O)OCc2ccccc2)cc1` (stereo unspecified), the EC50 was > 200 µM and the IC50 amounted to 10 µM.
For `Nc1nc2c(c(=O)[nH]1)NC(CO)CN2` (stereo unspecified), the outcome was inactive.
For `CCOCC(=O)N[C@H]1CCc2cc(OC)c(OC)c(OC)c2-c2ccc(SC)c(=O)cc21`, the EC50 is > 0.2 µM and the IC50 turned out to be 0.00115 µM.
On to `N#C/C(=C\c1ccc2[nH]ccc2c1)C(=O)NCCCCNC(=O)/C(C#N)=C/c1ccc2[nH]ccc2c1`, for which the EC50 was > 7.94 µM and the IC50 is > 7.94 µM.
Turning to `COc1ccc2c(c1)-c1nn(CCCN(C)C)c3ccc([N+](=O)[O-])c(c13)N2`, the EC50 was > 537 µM, the outcome was inactive and the IC50 amounted to 0.17 µM.
Take `COc1ccc(C2Oc3cc(OC)c(O)cc3[C@@H]2C)cc1` (stereo partly specified): the EC50 was > 66.1 µM and the 50% inhibitory concentration (IC50) was 6.46 µM.
On the same counts, the results for `CCN(CC)CCN1C(=O)C2C3C=CC(C2C1=O)C1C2C(=O)N(CCN(CC)CC)C(=O)C2C31` (stereo unspecified) are > 200 µM and > 200 µM.
The matching figures for `CN(C)CC1CN=C(NC(=O)Nc2ccccc2)O1` (stereo unspecified): > 200 µM and > 200 µM.
On the same counts, the results for `CC1(C)CNC[C@](C)(OCc2ccccc2)N1` are > 200 µM and > 200 µM.
Turning to `CC(C)NCCCC(C)Nc1ccnc2ccc3nn(C)nc3c12` (stereo unspecified), the EC50 is > 240 µM and the concentration for half-maximal inhibition (IC50) was 53.7 µM.
The matching figures for `COC1/C=C/OC2(C)Oc3c(C)c(O)c4c(O)c(c(/C=N\N(C)C56CC7CC(CC(C7)C5)C6)c(O)c4c3C2=O)NC(=O)C(C)=C/C=C/C(C)C(O)C(C)C(O)C(C)C(OC(C)=O)C1C` (stereo unspecified): > 200 µM and 7.41 µM.
The matching figures for `Cc1ccc2c(c1)[nH]c(=S)n2/C=C(\c1ccccc1)S(=O)Cc1ccccc1` (stereo unspecified): > 200 µM and > 200 µM.
`COC(=O)C(C(=O)C(=O)Nc1nc(=S)[nH][nH]1)c1csc(-n2nc(-c3ccccc3)cc2-c2ccccc2)n1` (stereo unspecified): the EC50 was > 69.2 µM and the IC50 is > 69.2 µM.
Regarding `COC(=O)/C(=N\NC(N)=O)C(C(=O)C(=O)Nc1ccccc1C(=O)OC)c1nc2ccc(C(=O)c3ccccc3)cc2[nH]c1=O` (stereo unspecified), the outcome was inactive.
Consider `CC(O)CNC1=CC(=O)C(=O)c2ccccc21` (stereo unspecified), for which the EC50 is > 200 µM and the IC50 worked out at 28.8 µM.
With `c1c[nH]c(C23C4C5C6C4C2C6C53)n1` (stereo unspecified), the EC50 was > 200 µM and the IC50 is > 200 µM.
On to `Cc1ccc(NC(=O)CCc2n[nH]c(=S)o2)cc1`, for which the EC50 was > 5.5 µM and the half-maximal inhibitory concentration (IC50) is > 5.5 µM.
For `C1CCC(N=C2N(C3CCCCC3)C(=NC3CCCCC3)N2C2CCCCC2)CC1`, the EC50 is > 9.12 µM and the half-maximal inhibitory concentration (IC50) is > 9.12 µM.
Compound `CCC(C)C(NC(=O)C(CCCCN)NC(=O)CNC(=O)C(NC(=O)C(NC(=O)C(NC(=O)C(Cc1ccccc1)NC(=O)C(C)NC(=O)C(CCCNC(=N)N)NC(=O)CNC(=O)C1CCCN1C(=O)CNC(=O)C(CCCNC(=N)N)NC(=O)C(CCC(N)=O)NC(=O)C(NC(=O)C(CCCNC(=N)N)NC(=O)C(NC(=O)C(CO)NC(=O)C(CCCCN)NC(=O)C(CCCNC(=N)N)NC(=O)C(NC(=O)C(CC(N)=O)NC(=O)C(N)CC(N)=O)C(C)O)C(C)CC)C(C)CC)C(C)C)C(C)OC1OC(CO)C(O)C(O)C1NC(C)=O)C(C)CC)C(=O)NCC(N)=O` (stereo unspecified) came in with an EC50 of 24.5 µM and an IC50 of 50.1 µM.
The matching figures for `COc1cccc2c1C(=O)c1c(O)c3c(c(O)c1C2=O)C[C@@](O)(/C(C)=N/NC(=O)c1ccccc1)C[C@@H]3OC1CC(N)C(O)C(C)O1` (stereo partly specified): > 50.1 µM and 0.0158 µM.
The matching figures for `COc1ccc(C(CC(C)=O)c2c(O)c3ccccc3oc2=O)cc1OC` (stereo unspecified): > 200 µM and > 200 µM.
The matching figures for `CCCCCCCCCCCC(=O)Nc1ccc(SSc2ccc(NC(=O)CCCCCCCCCCC)cc2)cc1`: > 200 µM and > 200 µM.
`O=c1oc2ccccc2c2nc3ccccc3cc12`: the outcome was inactive.
For `COc1ccc(NS(=O)c2cccc(C)c2)cc1` (stereo unspecified), the EC50 was > 200 µM and the IC50 came out at 11.2 µM.
On the same counts, the results for `CC(C)NC(=O)CCN(C(=O)O)S(=O)(=O)c1ccc(NC(=O)c2ccccc2)cc1` are > 575 µM and > 575 µM.

For orientation: EC50 means the concentration that produces a half-maximal response. By IC50 is commonly meant the midpoint of a concentration-inhibition curve. Lower therefore signals higher potency.
